Assay results: patent US7531695B2, “Therapeutic agents for the treatment of cancer, metabolic diseases and skin disorders” (Auspex Pharmaceutical, Inc, priority 2004, dated 2009)
Where a name gives a salt, the structure may show the parent alone.

Assays:
A375 cells = experiment: A375 Tumor Cell Proliferation Assay; assay type: cell-based; settings: Homo sapiens, A-375, read-out: LC50 (50% Lethal Concentration)
Experimental: (§1) A375 cells (5,000 per well in 90% RPMI-1640 plus 10% Fetal Bovine Serum [FBS]) were pre-incubated in a black clear bottom 96-well plate in an atmosphere of 5% CO2 at 37° C. for 24 hours. Stock solutions of compounds in DMSO were diluted using a buffer and dilutions were added to each well. […] The final assay pH was 7.4. The cells were incubated in RPMI-1640 with each compound for an additional 72 to 168 hours. Alamar Blue was added and the plate was incubated for an additional 12 hours. Fluorescence intensity was measured using a Gemini plate reader with excitation at 530 nm and emission at 590 nm. A decrease of 50 percent or more (≧50%) in fluorescence intensity relative to vehicle treated controls is an indication of significant anti-cancer activity.

[1] = test system: human head and neck squamous cell carcinoma cells (SCC 103); experiment: SCC103 Tumor Cell Proliferation Assay; assay type: cell-based; settings: SCC 103 cells; compared to Bexarotene; FIG. 1
Experimental: as §1, with “SCC 103” for “A375”, “(15,000” for “(5,000”, “EMEM medium” for “RPMI-1640”, “EMEM medium” for “RPMI-1640 with each compound”, “72” for “72 to 168”, “Blue (10% of culture volume)” for “Blue”

| SMILES | CC50 (A375 cells) [µM] | growth inhibitory effect [1] |
| --- | --- | --- |
| COc1cccc2c1C(=O)c1c(O)c3c(c(O)c1C2=O)C[C@@](O)(C(=O)CO)C[C@@H]3O[C@H]1C[C@H](N)[C@H](O)[C@H](C)O1 [Doxorubicin] | 8 |  |
| C=C(c1ccc(C2=C(O)CCCC2=O)cc1)c1cc2c(cc1C)C(C)(C)CCC2(C)C [Example 5, 5-3-Hydroxy-2-{4-[1-(3,5,5,8,8-pentamethyl-5,6,7,8-tetrahydro-naphthalen-2-yl)-vinyl]-phenyl}-cyclohex-2-enone] |  | enhanced activity |
| Cc1cc2c(cc1C(=O)c1ccc(C3=C(O)CCCC3=O)cc1)C(C)(C)CCC2(C)C [Example 8, 3-Hydroxy-2-[4(3,5,5,8,8-pentamethyl-5,6,7,8-tetrahydronaphthalene-2-carbonyl)-phenyl]-cyclohex-2-enone potassium salt] |  | enhanced activity |
